Here are results for six compounds from ChEMBL document CHEMBL1158242, “New bioactive cerebrosides from Arisaema amurense” (1996).

Molecules are shown by their SMILES.

One assay relates to Hepatocyte. In words: Antihepatotoxic activity against CCl4-induced toxicity in rat hepatocytes assessed as effect on SDH activity at 5 uM by Geralch method relative to control. The class given is functional.
With `CCCCCCCCC/C=C\CC/C=C/[C@@H](O)[C@H](CO[C@@H]1O[C@H](CO)[C@@H](O)[C@H](O)[C@H]1O)NC(=O)C(O)CCCCCCCCCCCCCC` (some centres not stated), the Activity was determined as 71.2%.

For the compound `CCCCCCCCC/C=C/CC/C=C/[C@@H](O)[C@H](CO[C@@H]1O[C@H](CO)[C@@H](O)[C@H](O)[C@H]1O)NC(=O)C(O)CCCCCCCCCCCCCCCCCC` (some centres not stated), the Activity turned out to be 7.2%.

For the compound `CCCCCCCCC/C=C\CC/C=C/[C@@H](O)[C@H](CO[C@@H]1O[C@H](CO)[C@@H](O)[C@H](O)[C@H]1O)NC(=O)[C@H](O)CCCCCCCCCCCCCCCCCC`, the Activity is recorded as 51.2%.

For the compound `CCCCCCCCC/C=C\CC/C=C/[C@@H](O)[C@H](CO[C@@H]1O[C@H](CO)[C@@H](O)[C@H](O)[C@H]1O)NC(=O)C(O)CCCCCCCCCCCCCCCC` (some centres not stated), the Activity turned out to be 36.9%.

Regarding `COc1cc(C2Oc3cc([C@H]4Oc5cc(O)cc(O)c5C(=O)[C@@H]4O)ccc3OC2CO)ccc1O` (some centres not stated) [SILIBININ], the Activity is listed as 42.3%.

In the case of `CCCCCCCCC/C=C/CC/C=C/[C@@H](O)[C@H](CO[C@@H]1O[C@H](CO)[C@@H](O)[C@H](O)[C@H]1O)NC(=O)C(O)CCCCCCCCCCCCCCCC` (some centres not stated), the Activity is recorded as 46.1%.

In another assay the test system is Hepatocyte. The experiment in a line: Antihepatotoxic activity against CCl4-induced toxicity in rat hepatocytes assessed as effect on GPT activity at 5 uM by Reitman-Fankel method relative to control. The class given is functional.
In the case of `CCCCCCCCC/C=C\CC/C=C/[C@@H](O)[C@H](CO[C@@H]1O[C@H](CO)[C@@H](O)[C@H](O)[C@H]1O)NC(=O)C(O)CCCCCCCCCCCCCC` (some centres not stated), the Activity was determined as 54.4%.

As for `CCCCCCCCC/C=C/CC/C=C/[C@@H](O)[C@H](CO[C@@H]1O[C@H](CO)[C@@H](O)[C@H](O)[C@H]1O)NC(=O)C(O)CCCCCCCCCCCCCCCCCC` (some centres not stated), the Activity is recorded as 22.5%.

`CCCCCCCCC/C=C\CC/C=C/[C@@H](O)[C@H](CO[C@@H]1O[C@H](CO)[C@@H](O)[C@H](O)[C@H]1O)NC(=O)[C@H](O)CCCCCCCCCCCCCCCCCC`: the Activity was determined as 53.8%.

`CCCCCCCCC/C=C\CC/C=C/[C@@H](O)[C@H](CO[C@@H]1O[C@H](CO)[C@@H](O)[C@H](O)[C@H]1O)NC(=O)C(O)CCCCCCCCCCCCCCCC` (some centres not stated): the Activity was 35.1%.

As to `COc1cc(C2Oc3cc([C@H]4Oc5cc(O)cc(O)c5C(=O)[C@@H]4O)ccc3OC2CO)ccc1O` (some centres not stated) [SILIBININ], the Activity amounted to 48.7%.

Consider `CCCCCCCCC/C=C/CC/C=C/[C@@H](O)[C@H](CO[C@@H]1O[C@H](CO)[C@@H](O)[C@H](O)[C@H]1O)NC(=O)C(O)CCCCCCCCCCCCCCCC` (some centres not stated), for which the Activity amounted to 51.6%.
